In ChEMBL document CHEMBL3507680, “University of Dundee, Gates Library screen for HepG2 cell viability”:

Assay: Human HepG2 cell viability assay in 384 well format
Assay type: toxicity, cell-based
Design: dose 125 nL, time 70.5 hour; concentration not given beside the values
Conditions: HepG2 cells, read-out: Inhibition

COCC(=O)N1CCCCC1c1nc(C)c2c(n1)N(C1CC1)C(=O)CC2 (configuration not stated)
cytotoxicity at 70.5 h: -3.68%

O=C(CO)N1CCC(CCc2ccnc(Nc3cnccn3)c2)CC1
cytotoxicity at 70.5 h: -2.09%

CN1CCC(Cc2cc(N(C)C)ncn2)C1 (configuration not stated)
cytotoxicity at 70.5 h: 5.25%

CN1CCC(CCc2ccnc(Nc3cnccn3)c2)CC1
cytotoxicity at 70.5 h: -4.49%

Cn1cc(C(=O)N2CCC(c3cc(CCO)n(C)n3)C2)cn1 (configuration not stated)
cytotoxicity at 70.5 h: -4.36%

O=C(O)[C@@H]1OCC(=O)N(Cc2cccc(Cl)c2)[C@@H]1c1ccccc1
cytotoxicity at 70.5 h: 5.58%

Cc1nccc(C2CN(S(=O)(=O)N(C)C)C2)n1
cytotoxicity at 70.5 h: -1.63%

CC(=O)NC1Cc2ccc(S(=O)(=O)NCCNc3ccccn3)cc2C1 (configuration not stated)
cytotoxicity at 70.5 h: -4.42%

CC(=O)Nc1nc(SCc2ccc3c(c2)OCO3)ns1
cytotoxicity at 70.5 h: -6.56%

Cc1ccnn1CCC(=O)N1CCCC[C@]2(C)NC(=O)CCC[C@H]12
cytotoxicity at 70.5 h: -7.45%

CC(C)(NC(=O)Cc1ccccc1F)C(=O)O
cytotoxicity at 70.5 h: -4.89%

CNc1nccc(C2CCCCN2Cc2cnn3cccnc23)n1 (configuration not stated)
cytotoxicity at 70.5 h: -9.3%

O=C(O)c1ccccc1-c1ccc(CN2CCC(CO)C2)cn1 (configuration not stated)
cytotoxicity at 70.5 h: 15.8%

CN(C)S(=O)(=O)N1CCC(c2c(C(N)=O)sc3ccccc23)C1 (configuration not stated)
cytotoxicity at 70.5 h: -3.67%

Cc1nc(C2CCN2c2ncccn2)cc(N(C)C)n1 (configuration not stated)
cytotoxicity at 70.5 h: -8.86%

O=C(CC1CCN(c2cccnn2)CC1)NCCO
cytotoxicity at 70.5 h: -6.47%

O=C(O)COc1ccc(CN2CCCC(Cc3cccnc3)C2)cc1 (configuration not stated)
cytotoxicity at 70.5 h: -9.55%

CC(C)C[C@H](N)COc1cccc(F)c1Oc1ccccc1
cytotoxicity at 70.5 h: 19.1%

Cc1cnc(CCNC(=O)C2CCN(S(=O)(=O)c3ccc(F)cc3)C2)s1 (configuration not stated)
cytotoxicity at 70.5 h: 17.8%

CC(=O)N1CCC(CCc2ccnc(NC(=O)c3ccccn3)c2)CC1
cytotoxicity at 70.5 h: 12%

O=C(O)c1ccccc1-c1cnc(CNC(=O)C2CCOCC2)nc1
cytotoxicity at 70.5 h: 14%

Cc1noc(C)c1CC(=O)N1CCCC(Cc2ccccn2)C1 (configuration not stated)
cytotoxicity at 70.5 h: -7.69%

O=C(O)c1ccc(=O)n(CC(c2ccc(Cl)cc2)N2CCCCCC2)c1 (configuration not stated)
cytotoxicity at 70.5 h: -8.13%

COCC(=O)N1C[C@@H](c2cccc(F)c2)[C@H]2[C@H]1CCCCCN2C(C)=O
cytotoxicity at 70.5 h: 7.2%

Cc1ccnc(C2CN(c3ncccn3)C2)n1
cytotoxicity at 70.5 h: -12.1%

CC(=O)N1CCCCC[C@@H]2[C@@H]1[C@H](c1cccc(F)c1)CN2CCC(N)=O
cytotoxicity at 70.5 h: -9.36%

CCC(=O)N1CCCC(C(=O)c2cnn(-c3ccc(F)cc3)c2N)C1 (configuration not stated)
cytotoxicity at 70.5 h: -0.996%

CC(=O)N1CCC1c1cc(N2CC(O)C2)nc(C)n1 (configuration not stated)
cytotoxicity at 70.5 h: -11.3%

CNC(=O)C1(c2cnccn2)CCCN1C(=O)Cc1ccsc1 (configuration not stated)
cytotoxicity at 70.5 h: -6.75%

CC(=O)N1CCC(C(=O)c2cnn(-c3ccccc3)c2N)C1 (configuration not stated)
cytotoxicity at 70.5 h: -7.91%

NCCCC(=O)NCC1(O)CCN(c2ccnc3cccnc23)C1 (configuration not stated)
cytotoxicity at 70.5 h: -7.06%

O=C1CN(C(=O)C2CN(c3cccc(Cl)c3)CCO2)CCN1 (configuration not stated)
cytotoxicity at 70.5 h: -7.93%

O=C1CN(C(=O)C2CN(c3ccccc3)CCO2)CCN1 (configuration not stated)
cytotoxicity at 70.5 h: -5.72%

CO[C@H]1C[C@@H]2CN(C(=O)c3cc4ccc(F)cc4[nH]3)C[C@@H]2C1
cytotoxicity at 70.5 h: -6.74%

Fc1cccc(Cc2cncc(C3CCCN3C3CCOCC3)n2)c1 (configuration not stated)
cytotoxicity at 70.5 h: -5.65%

CCn1c(C)nc2cc(NC(=O)CC3CCCCO3)ccc21 (configuration not stated)
cytotoxicity at 70.5 h: -7.28%

Cc1nc(C2CCN(S(C)(=O)=O)CC2)nc2c1CCC(=O)N2CC(C)C
cytotoxicity at 70.5 h: -1.36%

CC(=O)N1CCC1c1cc(N2CCNC(=O)C2)nc(C)n1 (configuration not stated)
cytotoxicity at 70.5 h: -5.23%

O=C1CO[C@H]2CCN(C(=O)c3ccc4c(c3)CCCC4)CC[C@@H]2N1
cytotoxicity at 70.5 h: -8.53%

CCC(=O)N1CCC(c2nc(C)ncc2-c2ccncc2)CC1
cytotoxicity at 70.5 h: -7.07%

CCS(=O)(=O)N1CCC(c2nc(C)c(C)c(N3CCCC3)n2)CC1
cytotoxicity at 70.5 h: 2.09%

CCN(Cc1ccccc1O)CC1(C)Cc2c(N)nc(N)nc2O1 (configuration not stated)
cytotoxicity at 70.5 h: -3.26%

CCN(Cc1ccncc1)CC1(C)Cc2c(N)nc(N)nc2O1 (configuration not stated)
cytotoxicity at 70.5 h: -2.81%

O=C(O)c1ccc(=O)n(CC(c2ccc(Cl)cc2)N2CCOCC2)c1 (configuration not stated)
cytotoxicity at 70.5 h: -6.42%

CCN(Cc1cscn1)CC1(C)Cc2c(N)nc(N)nc2O1 (configuration not stated)
cytotoxicity at 70.5 h: 6.12%

CCN(CCCc1ccccc1)CC1(C)Cc2c(N)nc(N)nc2O1 (configuration not stated)
cytotoxicity at 70.5 h: 12.9%

CNC(=O)c1cc(C)nc(C2(C)CCCN2c2cc(C)ncn2)n1 (configuration not stated)
cytotoxicity at 70.5 h: -6.05%

CC(C)CC(=O)N1CCCC1c1cc(CO)[nH]n1 (configuration not stated)
cytotoxicity at 70.5 h: -4.42%

OCC(CO)N1CCCC(Cc2cnc(Nc3ccccn3)cn2)C1 (configuration not stated)
cytotoxicity at 70.5 h: -3.34%

CCC(CC)C(=O)N1CCCc2c(cnn2C)C1
cytotoxicity at 70.5 h: -1.89%

O=C1NC2(CCN(CC(=O)N3CCOCC3)CC2)Nc2ccccc21
cytotoxicity at 70.5 h: -2.3%

CC(C)c1cc(C(F)(F)F)n2nc(C3CCN(S(C)(=O)=O)C3)cc2n1 (configuration not stated)
cytotoxicity at 70.5 h: -1.05%

O=C1NC2(CCCN(C(=O)CCn3cccn3)C2)Oc2ccccc21 (configuration not stated)
cytotoxicity at 70.5 h: 1.47%

COc1ccccc1N1CCC(NCc2c(C)noc2C)C1 (configuration not stated)
cytotoxicity at 70.5 h: 30%

CCc1ccccc1OCC(=O)Nc1ccnc(OCCN(C)C)c1
cytotoxicity at 70.5 h: 3.03%

NC(=O)CN(Cc1cccc(Oc2ccccc2)c1)C(=O)C1CC1
cytotoxicity at 70.5 h: -4.97%

O=S(=O)(Nc1ccc(N2CCOCC2)cn1)c1cccc(F)c1
cytotoxicity at 70.5 h: -3.99%

Cc1ccc(S(=O)(=O)Nc2ccc(N3CCOCC3)cn2)cc1
cytotoxicity at 70.5 h: -3.69%

COc1ccc(C(CN2CCN(C)CC2)Nc2ncccn2)cc1 (configuration not stated)
cytotoxicity at 70.5 h: 0.96%

COc1cc(C)ccc1OCC(=O)Nc1ccnc(OCCN(C)C)c1
cytotoxicity at 70.5 h: 39.3%

COc1ccnc(N(C)Cc2c(C)noc2C)n1
cytotoxicity at 70.5 h: -3.59%

CC(=O)N1CCCN(C(=O)NC(C)c2ccc(C)o2)CC1 (configuration not stated)
cytotoxicity at 70.5 h: 1.15%

CC(C(=O)NCc1cccs1)N1CCN(Cc2nccn2C)CC1 (configuration not stated)
cytotoxicity at 70.5 h: 13.2%

COc1ccc(SC(C)C(=O)N2CCC(C(=O)N3CCCC3)CC2)cc1 (configuration not stated)
cytotoxicity at 70.5 h: -5.49%

COc1ccc(SC(C)C(=O)N2CCC(O)CC2)cc1 (configuration not stated)
cytotoxicity at 70.5 h: -4.3%

N#Cc1ccccc1OCCN1CCC(C(=O)N2CCOCC2)CC1
cytotoxicity at 70.5 h: -9.69%

Cc1cc(C2CCCN2C(=O)c2ccc(OCC(N)=O)cc2)no1 (configuration not stated)
cytotoxicity at 70.5 h: -11.5%

O=C(CCn1cncn1)NC1CCS(=O)(=O)C1 (configuration not stated)
cytotoxicity at 70.5 h: -11%

Cc1ccc(OCCCNC(=O)C(C)Sc2nncn2C)cc1 (configuration not stated)
cytotoxicity at 70.5 h: -12.1%

CC(C)c1nc2n(n1)CC(Nc1ncnc3ccccc13)CC2 (configuration not stated)
cytotoxicity at 70.5 h: -13%

CN(C)S(=O)(=O)NC(=O)CC(c1ccccc1)C(F)(F)F (configuration not stated)
cytotoxicity at 70.5 h: -2.07%

COCC(C)(C)NC(=O)CC(c1ccccc1)C(F)(F)F (configuration not stated)
cytotoxicity at 70.5 h: -15.6%

Cc1nc2n(n1)CC(Nc1ncnc3c1CCC3)CC2 (configuration not stated)
cytotoxicity at 70.5 h: -10.2%

O=C(C[S+]([O-])Cc1csc(C2CCCC2)n1)Nc1ccccc1 (configuration not stated)
cytotoxicity at 70.5 h: -17.5%

c1nc2c(c(NC3CCc4ncnn4C3)n1)CCC2 (configuration not stated)
cytotoxicity at 70.5 h: -8.75%

N#Cc1cccc(OCCN2CCC(C(=O)N3CCOCC3)CC2)c1
cytotoxicity at 70.5 h: -11.2%

CCC(C)(C)NC(=O)C[S+]([O-])Cc1csc(C2CCCC2)n1 (configuration not stated)
cytotoxicity at 70.5 h: 11%

CCN(CC)c1ncc(Cl)c(C(=O)NC2CCC(O)CC2)n1 (configuration not stated)
cytotoxicity at 70.5 h: -0.431%

O=C(CCn1cncn1)NCC1CCCC1
cytotoxicity at 70.5 h: -6.57%

COCCN(Cc1ccccn1)C(=O)CC1OCCc2sccc21 (configuration not stated)
cytotoxicity at 70.5 h: -9.62%

CCCc1nn(Cc2csc(C(C)C)n2)c(=O)o1
cytotoxicity at 70.5 h: -7.07%

N#Cc1ccccc1OCCN1CCN(C(=O)C2CCCC2)CC1
cytotoxicity at 70.5 h: 7.87%

COc1ccc2c(c1)CC(NCc1cccc(NC(C)=O)c1)CC2 (configuration not stated)
cytotoxicity at 70.5 h: -5.85%

Cc1cnc(N2CCC(OCCN3CCCCC3)C2)nc1C (configuration not stated)
cytotoxicity at 70.5 h: -4.38%

COCCN(Cc1ccccn1)C(=O)CC1OCCc2ccccc21 (configuration not stated)
cytotoxicity at 70.5 h: -6.98%

CCN1CCC(NC(=O)CNC(C)Cn2cccn2)CC1 (configuration not stated)
cytotoxicity at 70.5 h: 11.4%

Cn1cc(C(=O)N2CCN(c3ccccc3)CC2)ccc1=O
cytotoxicity at 70.5 h: -6.86%

CCCC(NC(=O)c1cc(C2CC2)[nH]n1)c1nnc2ccccn12 (configuration not stated)
cytotoxicity at 70.5 h: -12.1%

Cc1cc(C)c(CNC(=O)NC2CCN(C(=O)C(C)C)CC2)c(C)c1
cytotoxicity at 70.5 h: -10.6%

CC(C)(C)NCC(=O)N1CCCC(n2ccnc2)C1 (configuration not stated)
cytotoxicity at 70.5 h: -9.3%

Cc1cnn(CCNCc2nccn2CC(F)(F)F)c1
cytotoxicity at 70.5 h: 1.15%

COc1ccc(C2(c3nc(-c4cnn(C)c4)no3)CCOCC2)cc1
cytotoxicity at 70.5 h: -3.48%

Cc1cnn(CC(C)NCC(=O)NC2CCOCC2)c1 (configuration not stated)
cytotoxicity at 70.5 h: 18.5%

CC(=O)Nc1ccc(CNC2COc3c2ccc(C)c3C)cc1 (configuration not stated)
cytotoxicity at 70.5 h: 15.7%

CCc1ccccc1CNC(=O)CNC(=O)C(C)(C)C
cytotoxicity at 70.5 h: -6.65%

CN(c1cccnc1N1CCCC1)S(=O)(=O)c1cccs1
cytotoxicity at 70.5 h: 12.7%

O=C(C[S+]([O-])c1ccc(F)c(F)c1)NCc1cc(F)cc(F)c1 (configuration not stated)
cytotoxicity at 70.5 h: -2.62%

COc1ccccc1[S+]([O-])CC(=O)NCc1cc(F)cc(F)c1 (configuration not stated)
cytotoxicity at 70.5 h: 2.23%

CC(C)c1nc(C(=O)N(C)c2ccc(Br)cn2)cs1
cytotoxicity at 70.5 h: -8.09%

COc1ccccc1NC(=O)CC(C)NCc1scnc1C (configuration not stated)
cytotoxicity at 70.5 h: -4.53%

CC(C)c1ocnc1C(=O)N1CCC2(CC1)OCCO2
cytotoxicity at 70.5 h: -8.01%

CCOCCN(C)C(c1cccnc1)c1ccc(F)cc1F (configuration not stated)
cytotoxicity at 70.5 h: -3.04%

CCC(CCNCc1cnc(C2CCC2)s1)N1CCCC1=O (configuration not stated)
cytotoxicity at 70.5 h: 26.8%

O=C(OCc1cccs1)c1cccc(C(=O)N2CCCC2)n1
cytotoxicity at 70.5 h: -8.17%

Cc1nnc(CN2CCCC2c2ccc3c(c2)OCCO3)n1C (configuration not stated)
cytotoxicity at 70.5 h: -3.49%

CC(C)C(C)N(C)Cc1nnc(-c2ccc(Br)s2)o1 (configuration not stated)
cytotoxicity at 70.5 h: -3%

COCCOc1ccc(S(=O)(=O)Nc2cccnc2O)cc1C
cytotoxicity at 70.5 h: -4.13%

CC(C)(C)OC(=O)NCCC(=O)NCC(O)c1cccc(F)c1 (configuration not stated)
cytotoxicity at 70.5 h: -0.447%

Cn1cnnc1CNC(=O)c1ccc(Br)cc1O
cytotoxicity at 70.5 h: -3.54%

NC(=O)C1CN(c2ccc(F)cc2)CCN1 (configuration not stated)
cytotoxicity at 70.5 h: -2.98%

Cc1nc(C2CCNC2)nc2c1CCC(=O)N2CC(C)C (configuration not stated)
cytotoxicity at 70.5 h: -3.62%

CCOc1cc2c(cc1CNC(Cc1cccs1)c1nccs1)OCO2 (configuration not stated)
cytotoxicity at 70.5 h: 1.33%

CC(C)(CN)NS(=O)(=O)c1c(F)cccc1F
cytotoxicity at 70.5 h: 2.67%

Cc1c(F)cccc1S(=O)(=O)NCCN
cytotoxicity at 70.5 h: -0.256%

COc1ccc(CN)c(OC(F)F)c1
cytotoxicity at 70.5 h: -10.1%

NCc1ccc(OC(F)F)cc1OC(F)F
cytotoxicity at 70.5 h: -15.9%

c1cncc(CN2CCC(c3ccc4c(c3)OCO4)CC2)c1
cytotoxicity at 70.5 h: 19.4%
